According to ChEMBL document CHEMBL1201862, “PubChem BioAssay data set” (2004):
The source made the active and inactive calls.

How the values were obtained:
[1] = molecular target: Dual specificity protein phosphatase 3 (Homo sapiens, UniProt P51452); experiment: VHR phosphatase inhibition, dose response, selectivity assay for STEP inhibitor project, biochemical (AID 602374); type: functional; conditions: read-out: IC50_Mean
[2] = molecular target: Tyrosine-protein phosphatase non-receptor type 11 (Homo sapiens, UniProt Q06124); experiment: PTPN11 enzyme inhibitors – biochemical, selectivity assay for STEP inhibitor project, dose response (AID 602367); type: functional; conditions: read-out: IC50_Mean
[3] = molecular target: T1, Long-chain-fatty-acid--AMP ligase FadD28 (Mycobacterium tuberculosis, UniProt P9WQ59); experiment: Fluorescence polarization aasay to screen for inhibitors that compete for the binding of FadD28 to a bisubstrate Measured in Biochemical System Using Plate Reader - 2147-01_Inhibitor_Dose_CherryPick_Activity.; type: functional, Mycobacterium tuberculosis H37Rv
T1 sequence (P9WQ59 whole entry): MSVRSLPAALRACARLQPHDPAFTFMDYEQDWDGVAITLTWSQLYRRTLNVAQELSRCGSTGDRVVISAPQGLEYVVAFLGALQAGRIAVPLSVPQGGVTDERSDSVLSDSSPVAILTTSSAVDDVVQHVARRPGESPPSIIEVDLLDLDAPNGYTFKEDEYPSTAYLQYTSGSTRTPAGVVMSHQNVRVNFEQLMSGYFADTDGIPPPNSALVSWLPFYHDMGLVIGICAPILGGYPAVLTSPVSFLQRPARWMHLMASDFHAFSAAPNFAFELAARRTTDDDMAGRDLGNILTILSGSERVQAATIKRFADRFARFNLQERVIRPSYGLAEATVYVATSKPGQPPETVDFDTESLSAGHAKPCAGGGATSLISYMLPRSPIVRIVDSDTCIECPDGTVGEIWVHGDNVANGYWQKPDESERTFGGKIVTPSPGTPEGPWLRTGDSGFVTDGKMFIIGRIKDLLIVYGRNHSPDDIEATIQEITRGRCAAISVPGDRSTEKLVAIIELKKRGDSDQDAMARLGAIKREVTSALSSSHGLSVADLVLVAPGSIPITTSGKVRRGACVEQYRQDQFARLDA

[4] = molecular target: T2, Histone-lysine N-methyltransferase NSD2 (Homo sapiens, UniProt O96028); type: biochemical
T2 sequence (O96028 whole entry): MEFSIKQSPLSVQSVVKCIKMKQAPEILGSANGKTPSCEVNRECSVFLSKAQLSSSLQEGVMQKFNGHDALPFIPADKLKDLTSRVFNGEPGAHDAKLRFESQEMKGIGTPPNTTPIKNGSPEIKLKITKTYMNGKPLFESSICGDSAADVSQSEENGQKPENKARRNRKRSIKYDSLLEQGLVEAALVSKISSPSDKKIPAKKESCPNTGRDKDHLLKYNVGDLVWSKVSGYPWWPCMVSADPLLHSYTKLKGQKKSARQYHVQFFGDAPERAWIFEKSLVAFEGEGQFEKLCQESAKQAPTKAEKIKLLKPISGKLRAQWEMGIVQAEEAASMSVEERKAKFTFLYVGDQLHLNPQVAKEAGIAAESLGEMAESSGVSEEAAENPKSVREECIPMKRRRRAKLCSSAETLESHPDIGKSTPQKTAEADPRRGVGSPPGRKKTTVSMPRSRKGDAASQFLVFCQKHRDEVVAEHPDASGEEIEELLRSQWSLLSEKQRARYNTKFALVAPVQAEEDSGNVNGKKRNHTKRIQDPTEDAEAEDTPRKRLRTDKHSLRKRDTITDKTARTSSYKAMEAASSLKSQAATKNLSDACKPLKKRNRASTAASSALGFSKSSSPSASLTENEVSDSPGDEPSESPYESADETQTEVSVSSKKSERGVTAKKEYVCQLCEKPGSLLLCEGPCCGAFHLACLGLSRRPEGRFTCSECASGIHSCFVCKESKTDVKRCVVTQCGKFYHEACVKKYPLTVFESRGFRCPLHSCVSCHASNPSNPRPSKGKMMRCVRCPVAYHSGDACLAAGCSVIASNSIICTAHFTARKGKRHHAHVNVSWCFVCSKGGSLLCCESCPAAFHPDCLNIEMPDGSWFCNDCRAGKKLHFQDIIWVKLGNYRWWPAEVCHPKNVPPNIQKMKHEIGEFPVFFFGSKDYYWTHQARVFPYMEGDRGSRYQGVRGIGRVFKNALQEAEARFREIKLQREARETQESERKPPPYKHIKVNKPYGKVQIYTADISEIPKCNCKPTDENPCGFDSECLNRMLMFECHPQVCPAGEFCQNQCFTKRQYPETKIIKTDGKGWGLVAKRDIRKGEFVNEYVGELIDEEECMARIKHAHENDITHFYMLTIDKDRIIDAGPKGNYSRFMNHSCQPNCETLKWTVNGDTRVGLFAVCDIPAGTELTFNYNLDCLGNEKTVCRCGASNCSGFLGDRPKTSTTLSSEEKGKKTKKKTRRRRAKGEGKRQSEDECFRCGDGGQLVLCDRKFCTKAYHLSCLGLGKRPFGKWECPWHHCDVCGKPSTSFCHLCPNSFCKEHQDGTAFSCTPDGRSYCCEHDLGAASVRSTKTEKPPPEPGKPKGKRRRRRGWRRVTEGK

Genome polyprotein = Genome polyprotein (dengue virus type 2, UniProt P29990); experiment: flavivirus cap methylation enzyme inhibition – biochemical, confirmation dose response, primary screen (AID 588689); type: functional
[5] = molecular target: Tyrosine-protein phosphatase non-receptor type 5 (Homo sapiens, UniProt P54829); experiment: PTPN5 enzyme inhibition – biochemical, fluorescence intensity, uHTS hits, confirmation (AID 602372); type: functional; conditions: read-out: IC50_Mean
[6] = molecular target: T3, Scavenger receptor class B member 1 (Mus musculus, UniProt Q61009); experiment: blockers of DiI-HDL lipid transfer via SR-BI – cell-based, ldlA[mSR-BI] CHO, DiI fluorescence, dry powder, set 10, dose response (AID 624029); type: functional
[7] = molecular target: T3, Scavenger receptor class B member 1; experiment: mouse SR-BI DiI-HDL transfer blockers – ldlA[mSR-BI] CHO cells, fluorescence plate reader, dry powder, set 9, dose response (AID 623880); type: functional, cell-based
Beta-lactamase [8] = molecular target: T4, Beta-lactamase (Pseudomonas aeruginosa, UniProt Q79MP6)
Beta-lactamase [9] = molecular target: T5, Beta-lactamase (Salmonella choleraesuis (strain SC-B67), UniProt Q5J463)
[10] = molecular target: T6, Beta-2 adrenergic receptor (Homo sapiens, UniProt P07550); experiment: ADRB2 activation measured by internalization – cell-based, FAP fluorogen, flow cytometry, cherry pick 1, dose response (AID 588763); type: functional
[11] = molecular target: T6, Beta-2 adrenergic receptor; experiment: Dose response for HTS for Beta-2AR agonists via FAP method from Powderset3.; type: functional
[12] = molecular target: SWI/SNF-related matrix-associated actin-dependent regulator of chromatin subfamily A member 2 (Homo sapiens, UniProt P51531); experiment: Luminescence-based cell-based high throughput dose response assay to identify activators of the function of SWI/SNF related, matrix associated, actin dependent regulator of chromatin, subfamily a, member 2 (SMARCA2, BRM).; type: functional
[13] = Counterscreen for activators of the function of SWI/SNF related, matrix associated, actin dependent regulator of chromatin, subfamily a, member 2 (SMARCA2, BRM): Luminescence-based cell-based high throughput dose response assay to identify non-selective compounds using the VP16 reporter assay.; type: functional
[14] = molecular target: T7, Small ubiquitin-related modifier 2 (Homo sapiens, UniProt P61956); experiment: SUMO2 binding disruption by SUMO1 hits – biochemical, FRET, human SUMO2, uHTS hits, selectivity assay for SUMO1 interaction inhibitor project, dose response (AID 624384); type: functional; conditions: read-out: IC50_Mean
[15] = molecular target: T8, Small ubiquitin-related modifier 1 (Homo sapiens, UniProt P63165); experiment: SUMO1 protein interaction blockers, potency – biochemical, fluorescence polarization, uHTS hits, dose response (AID 624382); type: functional; conditions: read-out: IC50_Mean
[16] = molecular target: DNA (cytosine-5)-methyltransferase 1 (Homo sapiens, UniProt P26358); experiment: inhibition of DNA methylation by DNMT1 – biochemical, fluorescent molecular beacon, confirmation (AID 602386); type: functional
[17] = molecular target: T7, Small ubiquitin-related modifier 2; experiment: disruption of SUMO2 interaction with SIM peptide – biochemical, fluorescence polarization, uHTS hits, selectivity assay for SUMO1 interaction inhibitor project, dose response (AID 624385); type: functional; conditions: read-out: IC50_Mean
[18] = molecular target: T8, Small ubiquitin-related modifier 1; experiment: SUMO1 protein-protein binding blockers, potency – biochemical, FRET, dose response (AID 624383); type: functional; conditions: read-out: IC50_Mean
[19] = molecular target: T9, High affinity choline transporter 1 (Homo sapiens, UniProt Q9GZV3); experiment: choline transporter CHT inhibition potency – cell-based, 3H-choline uptake, radioactive, HEK293 CHT LV-AA, orthogonal assay for CHT inhibitor project, dose response (AID 651756); type: functional
T9 sequence (Q9GZV3 whole entry): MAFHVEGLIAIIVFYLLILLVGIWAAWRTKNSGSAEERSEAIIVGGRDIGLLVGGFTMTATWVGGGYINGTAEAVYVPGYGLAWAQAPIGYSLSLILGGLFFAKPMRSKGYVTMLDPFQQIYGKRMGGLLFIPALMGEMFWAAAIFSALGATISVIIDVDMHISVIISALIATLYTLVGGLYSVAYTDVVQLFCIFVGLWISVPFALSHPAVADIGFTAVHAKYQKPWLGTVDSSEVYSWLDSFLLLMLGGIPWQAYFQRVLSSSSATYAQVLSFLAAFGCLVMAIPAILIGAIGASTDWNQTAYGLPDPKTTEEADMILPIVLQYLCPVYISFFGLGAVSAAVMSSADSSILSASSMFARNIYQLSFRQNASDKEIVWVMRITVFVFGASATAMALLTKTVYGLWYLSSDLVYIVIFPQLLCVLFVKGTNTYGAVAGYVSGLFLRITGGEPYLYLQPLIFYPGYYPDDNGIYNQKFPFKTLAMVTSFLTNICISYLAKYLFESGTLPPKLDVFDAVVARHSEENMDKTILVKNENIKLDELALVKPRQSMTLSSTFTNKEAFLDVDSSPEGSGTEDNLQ

[20] = inhibition of ARNT PAS-B/TACC3 complex formation – biochemical, AlphaScreen, cherry-picked samples, confirmation (AID 651703); type: functional, Homo sapiens;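 further: His-tagged ARNT PAS-B domain paired with GST-TACC3 E629A dimer coactivator fragment; potency of inhibitors that break up the complex and lower AlphaScreen signal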
[21] = cytotoxicity in HEK293 background cells – cell-based, dry powder, set 2, counter-screen for EBV LMP1 inhibitor project, dose response (AID 624374); type: functional
[22] = molecular target: ADP-ribosylation factor GTPase-activating protein 1 (Rattus norvegicus, UniProt Q62848); experiment: Fluorescence polarization-based biochemical high throughput dose response screening assay to identify inhibitors of ADP-ribosylation factor GTPase activating protein 1 (ARFGAP1).; type: functional
[23] = molecular target: Arf-GAP with SH3 domain, ANK repeat and PH domain-containing protein 1 (Homo sapiens, UniProt Q9ULH1); type: functional;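 further: biochemical fluorescence polarization dose–response screen measuring inhibition of ASAP1; ASAP1 GAP domain stimulating GTP hydrolysis by truncated human ARF1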
Beta Lactamase [24] = molecular target: T10, Beta Lactamase (Pseudomonas aeruginosa, UniProt Q932Y6); experiment: VIM-2 CCF2 hydrolysis inhibition, assay artifact filter – biochemical, FRET readout, CCF2 substrate, artefact control for selective VIM-2 inhibitor project, dose response (AID 1926)
Beta-lactamase [25] = molecular target: T4, Beta-lactamase; experiment: inhibition of IMP-1 beta-lactamase activity – biochemical, epi-absorbance, selectivity assay for VIM-2 inhibitor project, dose response (AID 1920)
Beta-lactamase [26] = molecular target: T4, Beta-lactamase; experiment: […] counterscreen for selective VIM-2 inhibitors: dose response biochemical high throughput screening assay to identify inhibitors of IMP-1 metallo-beta-lactamase.
Beta Lactamase [27] = molecular target: T10, Beta Lactamase; experiment: concentration-dependent VIM-2 enzyme inhibition – biochemical, epi-absorbance readout, selective inhibitors, dose response (AID 1919)
Beta-lactamase [28] = molecular target: T5, Beta-lactamase; experiment: Epi-absorbance-based counterscreen for selective VIM-2 inhibitors: dose response biochemical high throughput screening assay to identify inhibitors of TEM-1 serine-beta-lactamase.

T4 sequence (Q79MP6 whole entry): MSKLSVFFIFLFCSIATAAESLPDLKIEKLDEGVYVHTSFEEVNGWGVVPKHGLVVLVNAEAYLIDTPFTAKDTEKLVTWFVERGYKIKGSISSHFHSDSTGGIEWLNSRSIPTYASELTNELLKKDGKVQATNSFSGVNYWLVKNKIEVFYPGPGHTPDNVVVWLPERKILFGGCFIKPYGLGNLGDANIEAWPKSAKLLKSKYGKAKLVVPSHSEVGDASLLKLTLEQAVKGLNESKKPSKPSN
T10 sequence (Q932Y6 whole entry): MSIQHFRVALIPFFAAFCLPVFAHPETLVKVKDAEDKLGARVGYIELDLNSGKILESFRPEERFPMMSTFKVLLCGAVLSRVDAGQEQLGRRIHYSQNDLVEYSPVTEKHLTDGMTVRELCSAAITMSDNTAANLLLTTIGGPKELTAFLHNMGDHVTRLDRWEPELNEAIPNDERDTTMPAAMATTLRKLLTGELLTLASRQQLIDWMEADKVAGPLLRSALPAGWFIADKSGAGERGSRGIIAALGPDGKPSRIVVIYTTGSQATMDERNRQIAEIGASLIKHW
T3 sequence (Q61009 whole entry): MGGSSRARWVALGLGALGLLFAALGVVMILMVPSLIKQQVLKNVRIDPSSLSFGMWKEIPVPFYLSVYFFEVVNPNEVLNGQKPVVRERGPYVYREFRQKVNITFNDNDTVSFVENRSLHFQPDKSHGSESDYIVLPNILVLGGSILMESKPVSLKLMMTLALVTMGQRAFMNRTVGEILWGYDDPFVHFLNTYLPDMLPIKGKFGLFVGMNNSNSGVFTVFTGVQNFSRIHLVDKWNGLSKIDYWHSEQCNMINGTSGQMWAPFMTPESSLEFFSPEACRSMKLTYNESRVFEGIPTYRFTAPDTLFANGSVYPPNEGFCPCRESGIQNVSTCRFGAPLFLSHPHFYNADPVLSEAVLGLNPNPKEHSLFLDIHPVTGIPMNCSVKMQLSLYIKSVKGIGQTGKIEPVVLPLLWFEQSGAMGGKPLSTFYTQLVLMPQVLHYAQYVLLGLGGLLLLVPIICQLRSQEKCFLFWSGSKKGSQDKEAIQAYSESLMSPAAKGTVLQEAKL
T6 sequence (P07550 whole entry): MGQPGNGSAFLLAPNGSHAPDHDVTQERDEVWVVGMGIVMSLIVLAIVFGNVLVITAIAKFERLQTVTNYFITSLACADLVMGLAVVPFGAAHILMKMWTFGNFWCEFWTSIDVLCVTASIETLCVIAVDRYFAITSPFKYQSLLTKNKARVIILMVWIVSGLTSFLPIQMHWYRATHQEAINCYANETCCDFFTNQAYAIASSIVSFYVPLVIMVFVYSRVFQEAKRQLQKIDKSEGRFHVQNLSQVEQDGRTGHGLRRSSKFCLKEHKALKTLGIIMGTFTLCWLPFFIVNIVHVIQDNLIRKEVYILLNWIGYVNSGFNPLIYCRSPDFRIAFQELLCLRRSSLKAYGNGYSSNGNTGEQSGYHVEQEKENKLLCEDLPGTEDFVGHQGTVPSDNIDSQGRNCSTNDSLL
T5 sequence (Q5J463 whole entry): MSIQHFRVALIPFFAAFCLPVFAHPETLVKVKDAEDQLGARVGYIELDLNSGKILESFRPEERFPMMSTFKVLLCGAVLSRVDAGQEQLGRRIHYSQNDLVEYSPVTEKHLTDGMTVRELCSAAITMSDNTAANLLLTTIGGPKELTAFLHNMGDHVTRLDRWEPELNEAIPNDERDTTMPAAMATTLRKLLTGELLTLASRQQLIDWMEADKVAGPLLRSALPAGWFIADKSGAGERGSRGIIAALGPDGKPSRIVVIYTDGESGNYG
T7 sequence (P61956 whole entry): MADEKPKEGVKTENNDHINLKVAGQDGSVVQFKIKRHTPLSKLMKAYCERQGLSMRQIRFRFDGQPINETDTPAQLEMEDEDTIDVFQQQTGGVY
T8 sequence (P63165 whole entry): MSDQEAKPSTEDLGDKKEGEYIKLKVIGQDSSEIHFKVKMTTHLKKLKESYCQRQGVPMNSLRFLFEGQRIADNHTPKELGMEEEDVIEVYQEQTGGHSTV
Chain of Genome polyprotein (P29990 2492-3391 limits assumed): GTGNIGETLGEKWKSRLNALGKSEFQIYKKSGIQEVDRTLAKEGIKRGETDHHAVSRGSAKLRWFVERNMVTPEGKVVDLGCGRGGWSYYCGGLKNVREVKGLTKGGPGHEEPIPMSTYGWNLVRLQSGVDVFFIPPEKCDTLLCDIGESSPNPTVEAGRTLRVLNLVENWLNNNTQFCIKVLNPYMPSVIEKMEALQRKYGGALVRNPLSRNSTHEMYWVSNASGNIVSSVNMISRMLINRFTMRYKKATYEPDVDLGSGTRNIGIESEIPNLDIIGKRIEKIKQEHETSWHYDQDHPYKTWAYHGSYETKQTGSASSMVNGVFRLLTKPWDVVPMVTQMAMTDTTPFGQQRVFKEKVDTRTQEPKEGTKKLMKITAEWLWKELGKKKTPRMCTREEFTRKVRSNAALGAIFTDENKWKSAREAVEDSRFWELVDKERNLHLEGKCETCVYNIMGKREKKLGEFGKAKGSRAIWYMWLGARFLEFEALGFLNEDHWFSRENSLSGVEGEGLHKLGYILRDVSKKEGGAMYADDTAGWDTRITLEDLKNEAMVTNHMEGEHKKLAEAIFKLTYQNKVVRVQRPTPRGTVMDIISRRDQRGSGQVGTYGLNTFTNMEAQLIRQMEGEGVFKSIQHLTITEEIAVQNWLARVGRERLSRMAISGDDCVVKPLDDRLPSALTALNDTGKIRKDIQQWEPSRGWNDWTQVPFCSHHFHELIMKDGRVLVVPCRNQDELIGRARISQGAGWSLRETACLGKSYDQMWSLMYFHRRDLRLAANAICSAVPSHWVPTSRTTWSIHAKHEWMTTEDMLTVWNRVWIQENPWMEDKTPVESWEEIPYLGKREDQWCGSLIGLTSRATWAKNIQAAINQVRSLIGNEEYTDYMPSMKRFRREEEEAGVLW
Chain of ADP-ribosylation factor GTPase-activating protein 1 (Q62848 whole entry, the tested form may be a part): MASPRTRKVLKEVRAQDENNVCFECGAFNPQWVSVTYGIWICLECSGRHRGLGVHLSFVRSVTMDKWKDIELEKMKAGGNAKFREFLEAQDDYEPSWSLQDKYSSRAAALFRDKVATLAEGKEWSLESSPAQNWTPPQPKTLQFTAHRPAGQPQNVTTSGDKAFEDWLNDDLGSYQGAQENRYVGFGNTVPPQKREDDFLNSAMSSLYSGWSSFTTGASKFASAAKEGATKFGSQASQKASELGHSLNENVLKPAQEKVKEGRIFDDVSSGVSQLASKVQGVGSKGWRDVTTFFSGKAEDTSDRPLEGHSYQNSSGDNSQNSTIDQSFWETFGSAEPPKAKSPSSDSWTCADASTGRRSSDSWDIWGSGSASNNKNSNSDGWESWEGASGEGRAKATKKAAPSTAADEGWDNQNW
Chain of SWI/SNF-related matrix-associated actin-dependent regulator of chromatin subfamily A member 2 (P51531 whole entry): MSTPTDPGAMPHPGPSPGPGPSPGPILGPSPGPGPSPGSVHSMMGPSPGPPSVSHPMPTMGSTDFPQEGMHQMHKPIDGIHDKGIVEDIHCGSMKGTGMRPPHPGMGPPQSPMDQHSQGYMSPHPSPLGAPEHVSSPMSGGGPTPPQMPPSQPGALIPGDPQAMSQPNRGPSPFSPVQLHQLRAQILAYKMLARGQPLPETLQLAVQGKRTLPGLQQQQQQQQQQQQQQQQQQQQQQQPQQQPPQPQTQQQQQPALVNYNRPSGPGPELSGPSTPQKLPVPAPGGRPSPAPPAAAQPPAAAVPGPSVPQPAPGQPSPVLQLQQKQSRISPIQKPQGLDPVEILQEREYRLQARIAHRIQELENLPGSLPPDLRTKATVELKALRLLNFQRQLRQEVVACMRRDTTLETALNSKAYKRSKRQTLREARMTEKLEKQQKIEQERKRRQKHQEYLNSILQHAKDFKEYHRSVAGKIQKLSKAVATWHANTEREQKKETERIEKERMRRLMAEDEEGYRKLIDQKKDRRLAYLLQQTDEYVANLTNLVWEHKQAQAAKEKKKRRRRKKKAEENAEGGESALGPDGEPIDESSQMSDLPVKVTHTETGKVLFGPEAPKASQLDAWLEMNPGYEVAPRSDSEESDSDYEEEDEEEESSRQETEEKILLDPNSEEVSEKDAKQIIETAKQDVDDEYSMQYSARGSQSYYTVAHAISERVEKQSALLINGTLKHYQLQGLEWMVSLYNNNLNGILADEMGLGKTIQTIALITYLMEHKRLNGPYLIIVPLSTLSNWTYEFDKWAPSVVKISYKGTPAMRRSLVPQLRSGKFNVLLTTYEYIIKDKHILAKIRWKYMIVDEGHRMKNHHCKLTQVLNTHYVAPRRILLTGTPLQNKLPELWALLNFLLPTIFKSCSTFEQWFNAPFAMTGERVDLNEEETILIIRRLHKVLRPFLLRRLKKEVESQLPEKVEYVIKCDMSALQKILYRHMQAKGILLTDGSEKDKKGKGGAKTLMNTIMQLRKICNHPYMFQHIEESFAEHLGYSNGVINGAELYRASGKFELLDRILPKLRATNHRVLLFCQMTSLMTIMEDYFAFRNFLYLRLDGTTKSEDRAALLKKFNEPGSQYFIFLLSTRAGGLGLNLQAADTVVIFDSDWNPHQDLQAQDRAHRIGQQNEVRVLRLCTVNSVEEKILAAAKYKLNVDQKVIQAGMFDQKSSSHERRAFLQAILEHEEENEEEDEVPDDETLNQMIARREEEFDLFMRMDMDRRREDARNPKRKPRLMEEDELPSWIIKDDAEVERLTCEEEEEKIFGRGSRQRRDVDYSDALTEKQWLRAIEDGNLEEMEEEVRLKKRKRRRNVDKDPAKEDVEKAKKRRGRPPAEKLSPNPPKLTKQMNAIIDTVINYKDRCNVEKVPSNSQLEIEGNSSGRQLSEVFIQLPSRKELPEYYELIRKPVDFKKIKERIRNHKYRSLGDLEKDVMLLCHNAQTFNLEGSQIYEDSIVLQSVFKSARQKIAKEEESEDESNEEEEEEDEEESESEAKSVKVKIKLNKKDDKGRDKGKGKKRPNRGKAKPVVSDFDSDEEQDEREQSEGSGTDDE

CC(C(=O)Nc1ccc(O)cc1C(=O)O)N1C(=O)/C(=C\c2cccs2)SC1=S (stereo not given)
IC50 [1]: 5.64 µM (active)
IC50 [2]: 1.5 µM (active)
AC50 [3]: 49.3 µM (active)
AC50 [4]: > 20 µM (inactive)
IC50 (Genome polyprotein): 47.9 µM (active)
IC50 [5]: 20.5 µM (inactive)

CC(C)CN(C(=O)COC(=O)C12CC3CC(CC(O)(C3)C1)C2)C1CCS(=O)(=O)C1 (stereo not given)
AC50 [6]: 0.252 µM (active)
AC50 [7]: 0.209 µM (active)

COc1ccc(-c2cc(=O)oc3c(C)c(OCC(=O)NCCCn4ccnc4)ccc23)cc1
IC50 (Beta-lactamase [8]): > 59.6 µM (inactive)
IC50 (Beta-lactamase [9]): > 59.6 µM (inactive)

COc1ccc(OC)c(CCNC(=O)C2CCN(c3nnc(-n4cccc4)s3)CC2)c1
EC50 [10]: 2.85 µM (active)
EC50 [11]: 1.51 µM (active)

N#Cc1c(NCCN)nc(-c2ccco2)c2c1CCCC2
EC50 [12]: 10.8 µM (inactive)
EC50 [13]: > 91.2 µM (inactive)

CN(c1ccccc1)c1ccc(/C=C(/CCC(=O)O)c2nc3ccccc3s2)cc1[N+](=O)[O-]
IC50 [14]: > 66 µM (inactive)
IC50 [15]: 11.1 µM (active)
IC50 [16]: 9.98 µM (active)
IC50 (Genome polyprotein): 48.5 µM (active)
IC50 [17]: 6.2 µM (active)
IC50 [18]: 51.8 µM (inactive)

O=C(Nc1ccc(S(=O)(=O)Nc2ccccn2)cc1)c1ccc([N+](=O)[O-])cc1Cl
IC50 [19]: 3.85 µM (active)

C[C@H]1CN([C@@H](C)CO)C(=O)c2cc(NC(=O)Nc3cccc4ccccc34)ccc2O[C@@H]1CN(C)C(=O)Nc1ccc(C(F)(F)F)cc1
AC50 [20]: 108 µM (active)

COc1ccccc1C(=O)Nc1ccc2c(c1)C(=O)N(C)[C@@H]1CC[C@H](CC(=O)NCCc3ccncc3)O[C@H]1CO2
AbsAC35 [21]: 153.61 µM

CCCCOc1cccc2c(=O)n(CC(=O)Nc3ccc4c(c3)OCCO4)ccc12
IC50 [22]: 36.8 µM (inactive)
IC50 [23]: 18.3 µM (inactive)

CCc1nnc(S)n1/N=C/c1ccc(NC(C)=O)cc1
IC50 (Beta Lactamase [24]): 2.08 µM (active)
IC50 (Beta-lactamase [25]): > 59.6 µM (inactive)
IC50 (Beta-lactamase [26]): > 59.6 µM (inactive)
IC50 (Beta Lactamase [27]): 6.32 µM (active)
IC50 (Beta-lactamase [28]): > 59.6 µM (inactive)
